Test results taken from US9796716B2, “Selective inhibitors of Tec and Src protein kinase families” (Pharmascience, Inc., priority 2012, dated 2017).

What was measured:
[1] = biological target: recombinant human full-length Bruton Agammaglobulinemia Tyrosine Kinase (Btk) (Homo sapiens (Human), UniProt Q06187); assay: Btk Kinase Inhibition Assay (fluorescence polarization); format: biochemical; conditions: 10 μM ATP, 250 μM substrate, 60 minutes; Ki calculated from IC50 using the Cheng-Prusoff equation
Method in brief: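 His-tagged full-length enzyme reacted 60 min at room temperature with 250 μM substrate, 10 μM ATP and compound dilutions; stopped with EDTA/detection reagents, read by fluorescence polarization. IC50 from nonlinear fit, converted to Ki via Cheng-Prusoff using experimentally determined ATP Km.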

[2] = test system: Splenocytes (B cell proliferation stimulated with anti-IgM F(ab′)2); assay: Splenic Cell Proliferation Assay; format: cell-based; conditions: Mus musculus, Splenocyte, 72 h, CD1 mouse splenocytes, 2.5 ug/ml anti-IgM F(ab′)2 for 72 h, Cell Titer-Glo; read-out: EC50 (nM), Inhibition of splenic cell proliferation
Method in brief: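 Splenocytes from 6-week male CD1 mice, adherent cells removed, seeded at 50,000 cells/well and pre-treated 1 h with compound curves (top 10,000 nM). Stimulated with 2.5 ug/ml anti-IgM F(ab′)2 for 72 h; proliferation by CellTiter-Glo luminescence, EC50 relative to vehicle controls.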

Balb/c mice = assay: Mouse Arthus; format: in vivo; conditions: oral gavage at 30 mg/kg, 1 h pre-treatment
Protocol: Mouse Arthus studies were conducted as reported in Braselmann S, Taylor V, Zhao H, Wang S, Sylvain C, Baluom M, Qu K, Herlaar E, Lau A, Young C, Wong B R, Lovell S, Sun T, Park G, Argade A, Jurcevic S, Pine P, Singh R, Grossbard E B, Payan D G, Masuda E S: R406 an orally available spleen tyrosine kinase inhibitor blocks fc receptor signaling and reduces immune-complex mediated inflammation. J Pharmacol Exp Ther, 2006, 319:998-1008.
In summary, female Balb/c mice (6-7 weeks on arrival) were habituated to the animal facility for at least 4 days. On the day of the experiment, animals were pre-treated (t=minus 1 h) with compound or vehicle alone by gavage (PO). At t=0, animals were injected intravenously (IV; 0.1 mL/mouse) with saline containing chicken ovalbumin and Evan's blue (10 mg/mL of each). Ten minutes later (t=10 min), animals were anesthesized with isoflurane, the dorsal surface was shaved and rabbit anti-chicken ovalbumin antibody was then injected intradermally at one site on the right side of the animal (25 μg in 30 μL). The same amount of isotype control antibody was then injected on the left side.
The animals were then returned to their home cage and skin punches (8 mm) were collected from each injection site four hours later. The samples were placed in 1 mL formamide overnight at 80 degrees C. (1 skin biopsy per 1 mL formamide in a glass tube). The amount of Evan's blue in the formamide solution was then assessed by spectrophotometry (630 nm) as a measure of serum extravasation into the dermis.

B10R111 mice = assay: Mouse CIA model; format: in vivo; conditions: oral gavage at 30 mg/kg (BID)
Protocol: Mouse CIA model was performed using the methods described by Trentham D E, Townes A S, Kang A H. Autoimmunity to Type II Collagen: An Experimental Model of Arthritis. J Exp Med 1977; 857-868, and Bendele A M. Animal Models of Rheumatoid Arthritis. J Musculoskel Interact 2001; 377-385.
In summary, male B10R111 mice (7-9 wks on arrival) were habituated to the animal facility for at least 4 days. On experimental day 0 mice were anaesthetized with isoflurane and the dorsal surface was shaved. Collagen, emulsified in Freund's complete adjuvant (CFA) supplemented with additional mycobacterium tuberculosis (TB) H37Ra, was injected intradermally at the base of the tail (0.15 mL/animal; 2 mg/mL collagen and 2.5 mg/mL TB in CFA). This CFA treatment was repeated on day 15.
From day 15 to the end of the study animals were scored daily for signs of arthritis. On the first day of disease (RA Day 1) animals were recruited to the study and grouped using a balanced design based on arthritis score. Once recruited, animals were weighed and dosed twice daily by gavage (PO, BID). Recruited animals were then scored twice a week on RA days 1, 5, 8 and 12. At the end of the study (RA day 12) animals were weighed and scored.

Chain of recombinant human full-length Bruton Agammaglobulinemia Tyrosine Kinase (Btk) (Q06187 whole entry): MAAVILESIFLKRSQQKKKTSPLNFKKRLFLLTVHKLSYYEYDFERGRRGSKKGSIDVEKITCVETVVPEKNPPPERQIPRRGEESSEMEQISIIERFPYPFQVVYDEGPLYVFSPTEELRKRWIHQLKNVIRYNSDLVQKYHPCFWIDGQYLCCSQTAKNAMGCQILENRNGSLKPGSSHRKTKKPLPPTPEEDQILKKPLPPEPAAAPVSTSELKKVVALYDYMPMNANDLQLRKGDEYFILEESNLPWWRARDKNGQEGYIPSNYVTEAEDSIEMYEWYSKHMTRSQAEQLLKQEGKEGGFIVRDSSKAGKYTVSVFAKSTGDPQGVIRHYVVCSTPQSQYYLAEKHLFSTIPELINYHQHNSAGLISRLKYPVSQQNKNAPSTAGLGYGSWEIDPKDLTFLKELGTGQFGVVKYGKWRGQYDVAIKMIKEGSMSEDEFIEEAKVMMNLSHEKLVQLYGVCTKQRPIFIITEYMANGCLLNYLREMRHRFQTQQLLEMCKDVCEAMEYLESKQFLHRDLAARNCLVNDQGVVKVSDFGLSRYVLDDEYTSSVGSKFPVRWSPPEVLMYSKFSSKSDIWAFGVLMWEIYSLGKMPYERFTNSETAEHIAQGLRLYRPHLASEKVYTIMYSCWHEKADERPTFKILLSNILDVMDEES

Ki [1] | SMILES | EC50 [2] | efficacy in mouse Arthus (Evan's blue extravasation) (Balb/c mice) | efficacy in mouse CIA model (arthritis score) (B10R111 mice)
< 100 nM | Cc1ccc(COc2cc(F)cc(Oc3ccc(-c4nn(C(C)C)c5ncnc(N)c45)cc3)c2)cn1 [Compound 85] | < 100 nM | demonstrated efficacy | demonstrated efficacy
< 100 nM | Cc1ncc(COc2cc(F)cc(Oc3ccc(-c4nn(C(C)C)c5ncnc(N)c45)cc3)c2)cn1 [Compound 102] | < 100 nM | demonstrated efficacy | demonstrated efficacy
